Data published in patent US20080214556A1 (priority 2007, published 2008).
Like-named read-outs stand apart in the source and are kept apart here.

Columns and labels:
[1] = test system: patients with non-ST elevation acute coronary syndrome; test: MERLIN-TIMI 36: HbA1c and hyperglycemia; format: in vivo, human
Text: The proportion of patients in the MERLIN-TIMI 36 study with HbA1C≧7% is shown in Table 28 below (and see FIG. 15).
The proportion of patients with HbA1C≧7% (with diabetes or no diabetes) at various times during the MERLIN-TIMI 36 study is shown in Table 29 below (and FIG. 16).
HbA1c data are reported as least-square means. Patients categorized as “diabetic” had been diagnosed as diabetic before or at the time of randomization. Patients categorized as “no diabetes” had not been diagnosed as diabetic before or at the time of randomization. Some patients characterized as “no diabetes” may have been diagnosed as “diabetic” during the trial; however, these patients are still listed in the “no diabetes” category in FIG. 4B.

[2] = test system: patients with non-ST elevation acute coronary syndrome; test: MERLIN-TIMI 36: Seattle Angina Questionnaire scores at 4 months; format: in vivo, human; conditions: ITT, N 2558
Text: The MERLIN-TIMI 36 secondary efficacy endpoint (ITT) Seattle Angina Questionnaire scores at 4 months for anginal frequency scale are shown in Table 16 below, and scores for physical limitation scale are shown in Table 17 below.

[3] = test system: patients with non-ST elevation acute coronary syndrome
[4] = test system: patients with non-ST elevation acute coronary syndrome; test: MERLIN-TIMI 36: ischemia on Holter / continuous ECG (CECG) monitoring; format: in vivo, human; conditions: ranolazine vs placebo
Protocol: At randomization, 6355 patients (99%) had 3-lead CECG monitoring initiated (median duration 6.9 days). The primary CECG endpoint was the rate of ST dep≧1 mm from baseline lasting ≧1 minute with heart rate at onset <100 bpm. Exploratory analyses using ST dep≧0.5 mm were also performed.

[5] = test system: patients with non-ST elevation acute coronary syndrome; test: MERLIN-TIMI 36: arrhythmias on 7 day continuous ECG (Holter) recording; format: in vivo, human
Protocol: The safety endpoint data for incidence of clinically significant arrhythmias during 7 day Holter monitoring from MERLIN-TIMI 36 is shown in Table 24 below.
Continuous ECG (Holter) recording was performed for the first 7 days after randomization. Because of the known prolongation of the QT interval with ranolazine, analyses of a prespecified set of arrhythmias were a major objective of the trial. All arrhythmias were evaluated in the TIMI ECG Core Laboratory by cardiologists blinded to treatment and outcomes.
Continuous ECG (cECG or Holter) recording was performed for the first 7 days after randomization. Prespecified arrhythmia analyses were evaluated by a core laboratory blinded to treatment and outcomes.

[6] = test system: patients with non-ST elevation acute coronary syndrome; test: MERLIN-TIMI 36: adverse events; format: in vivo, human; conditions: n = 3268
[7] = test system: patients with non-ST elevation acute coronary syndrome; test: MERLIN-TIMI 36: efficacy endpoints (CV death, MI, recurrent ischemia, failure of therapy); format: in vivo, human
Text: The MERLIN-TIMI 36 primary efficacy endpoint (ITT) time from randomization to first occurrence of cardiovascular death, myocardial infarction, or recurrent ischemia data is shown in Table 11 below (and FIGS. 4 and 5).
The MERLIN-TIMI 36 major secondary efficacy endpoint (ITT) time from randomization to first occurrence of cardiovascular death, myocardial infarction, or severe recurrent ischemia data is shown in Table 12 below (and FIGS. 6 and 7).
The secondary efficacy endpoint time from randomization to failure of therapy (cardiovascular death, […], recurrent ischemia, positive Holter for ischemia, New/Worsening heart failure, or early+ETT) data from MERLIN-TIMI 36 is shown in Table 14 below (and FIGS. 8 and 9).
The secondary efficacy endpoint (ITT) incidence at 30 days of cardiovascular death, myocardial infarction, severe recurrent ischemia, or positive Holter for ischemia data from MERLIN-TIMI 36 is shown in Table 15 below.
The data for time from randomization to first occurrence of cardiovascular death or myocardial infarction from MERLIN-TIMI 36 is shown in Table 20 below. For relative risk of CV death, MI, or recurrent ischemia by subgroup, see FIG. 10. For relative risk of CV death, MI, or severe recurrent ischemia by subgroup, see FIG. 11. For relative risks of failure of therapy by subgroup, see FIG. 12.

[8] = patients with DM treated with ranolazine
[9] = placebo vs ranolazine, cECG monitoring
[10] = ITT, n = 3279, major secondary efficacy endpoint
[11] = ITT, n = 3279, primary efficacy endpoint

SMILES: COc1ccccc1OCC(O)CN1CCN(CC(=O)Nc2c(C)cccc2C)CC1 (racemic) [Ranolazine, (±)—N-(2,6-dimethylphenyl)-4-[2-hydroxy-3-(2-methoxyphenoxy)-propyl]-1-piperazineacetamide]
- Patients with HbA1C ≧ 7% (%) ([1]; Baseline (In-Hospital visit prior to randomization), all patients dosed): 24%
- Patients with HbA1C ≧ 7% (%) ([1]; Diabetes at enrollment, n = 1098, Baseline): 57%
- Patients with HbA1C ≧ 7% (%) ([1]; Diabetes at enrollment, n = 1098, Final Visit): 42%
- Patients with HbA1C ≧ 7% (%) ([1]; Diabetes at enrollment, n = 1098, Month 4): 41%
- Patients with HbA1C ≧ 7% (%) ([1]; Diabetes at enrollment, n = 1098, Month 8): 44%
- Patients with HbA1C ≧ 7% (%) ([1]; Diabetes at enrollment, n = 1098, Month 16): 48%
- Patients with HbA1C ≧ 7% (%) ([1]; Final Visit, all patients dosed): 17%
- Patients with HbA1C ≧ 7% (%) ([1]; Month 4, all patients dosed): 17%
- Patients with HbA1C ≧ 7% (%) ([1]; Month 8, all patients dosed): 18%
- Patients with HbA1C ≧ 7% (%) ([1]; Month 16, all patients dosed): 20%
- Patients with HbA1C ≧ 7% (%) ([1]; No Diabetes at enrollment, n = 2170, Baseline): 6%
- Patients with HbA1C ≧ 7% (%) ([1]; No Diabetes at enrollment, n = 2170, Final Visit): 6%
- Patients with HbA1C ≧ 7% (%) ([1]; No Diabetes at enrollment, n = 2170, Month 4): 5%
- Patients with HbA1C ≧ 7% (%) ([1]; No Diabetes at enrollment, n = 2170, Month 8): 6%
- Patients with HbA1C ≧ 7% (%) ([1]; No Diabetes at enrollment, n = 2170, Month 16): 7%
- HbA1c ([1]; at 4 months, 4306 patients with serial measurements, least-square means): 5.9%
- HR for worsening of hyperglycemia ([1]; diabetic patients, ranolazine vs placebo): 0.63
- HbA1c after decline (declined to) [1, 8]: 6.8
- HbA1c before decline (declined from) [1, 8]: 7.2
- Patients achieving HbA1c<7% ([1]; patients with DM, at 4 months): 59%
- HR for new fasting glucose >110 mg/dL or HbA1c≧6% ([1]; patients without DM, ranolazine vs placebo): 0.68
- Seattle Angina Questionnaire, Anginal Frequency Scale: Median [2]: 100
- Incidence (Kaplan-Meier estimate) of death from any cause ([3]; 30 days): 1.8%
- Incidence (Kaplan-Meier estimate) of death or CV hospitalization ([3]; 30 days): 9.2%
- Incidence (Kaplan-Meier estimate) of death from any cause ([3]; 60 days): 2.2%
- Incidence (Kaplan-Meier estimate) of death or CV hospitalization ([3]; 60 days): 15.0%
- Incidence (Kaplan-Meier estimate) of death from any cause ([3]; 180 days): 3.4%
- Incidence (Kaplan-Meier estimate) of death from any cause ([3]; 360 days): 5.3%
- Incidence (Kaplan-Meier estimate) of death from any cause ([3]; 540 days): 7.0%
- Pts with events: death from any cause ([3]; All Patients Dosed, n = 3268): 172
- Pts with events: first occurrence of death or CV hospitalization ([3]; All Patients Dosed, n = 3268): 1037
- Endpoint-defining events: Death (%) ([3]; death or CV hospitalization endpoint, n = 3268): 10.7%
- Endpoint-defining events: CV hospitalization (%) ([3]; human, in vivo): 89.3%
- Symptomatic documented arrhythmias (% of patients) ([3]; human, in vivo): 3.0%
- HR for total mortality ([3]; ranolazine vs placebo): 0.99
- RR for primary CECG endpoint events ([4]; >72 hours after randomization): 0.86
- RR for CECG ischemic events ([4]; lower ischemic threshold of 0.5 mm): 0.91
- Any Clinically Significant Arrhythmia during 7 Day Holter (%) ([5]; All Patients Dosed, n = 3268): 71.3%
- Bradycardic episode during 7 Day Holter (%) ([5]; All Patients Dosed, n = 3268): 38.5%
- New onset atrial fibrillation during 7 Day Holter (%) ([5]; All Patients Dosed, n = 3268): 1.7%
- Supraventricular tachycardia during 7 Day Holter (%) ([5]; Any SVT >= 120 bpm, n = 3268): 43.2%
- Ventricular tachycardia during 7 Day Holter (%) ([5]; Any VT >= 100 bpm >= 3 beats, n = 3268): 29.0%
- Pause > 3 secs (%) ([5]; Holter, first 7 days, n = 3162): (3.1) %
- VT >= 8 beats (<30 secs) (%) ([5]; Holter, first 7 days, n = 3162): (5.5) %
- New-onset atrial fibrillation (% of patients) ([5]; cECG first 7 days, Example 9): 1.7%
- Polymorphic VT >= 8 beats (%) ([5]; cECG monitoring): (1.2) %
- Sustained VT (>=30 sec) (%) ([5]; cECG monitoring): (0.44) %
- VT ≧ 8 beats (<30 sec) (%) ([5]; cECG monitoring): (5.3) %
- VT ≧ 8 beats (<30 sec) (%) ([5]; cECG monitoring, listed as ranolazine): 5.3%
- Polymorphic VT >= 8 beats: Δ (%) [5, 9]: −21%
- Sustained VT (>=30 sec): Δ [5, 9]: 0
- VT ≧ 3 beats (≧100 b/m): Δ (%) [5, 9]: −17%
- VT ≧ 4 beats (≧100 b/m): Δ (%) [5, 9]: −30%
- VT ≧ 8 beats (<30 sec): Δ (%) [5, 9]: −37%
- Adverse event: Angina pectoris (%) ([6]; AE summary > 4% incidence): (8%)
- Adverse event: Angina unstable (%) ([6]; AE summary > 4% incidence): (10%)
- Adverse event: Asthenia (%) ([6]; AE summary > 4% incidence): (5%)
- Adverse event: Cardiac failure (%) ([6]; AE summary > 4% incidence): (5%)
- Adverse event: Chest pain (%) ([6]; AE summary > 4% incidence): (11%)
- Adverse event: Constipation (%) ([6]; AE summary > 4% incidence): (9%)
- Adverse event: Dizziness (%) ([6]; AE summary > 4% incidence): (13%)
- Adverse event: Fatigue (%) ([6]; AE summary > 4% incidence): (4%)
- Adverse event: Headache (%) ([6]; AE summary > 4% incidence): (7%)
- Adverse event: Hypotension (%) ([6]; AE summary > 4% incidence): (5%)
- Adverse event: Nausea (%) ([6]; AE summary > 4% incidence): (9%)
- Serious adverse event: ACS (%) ([6]; SAEs ≧ 1% incidence): (2%)
- Serious adverse event: Acute MI (%) ([6]; SAEs ≧ 1% incidence): (3%)
- Serious adverse event: Angina pectoris (%) ([6]; SAEs ≧ 1% incidence): (4%)
- Serious adverse event: Angina unstable (%) ([6]; SAEs ≧ 1% incidence): (8%)
- Serious adverse event: Atrial fibrillation (%) ([6]; SAEs ≧ 1% incidence): (1%)
- Serious adverse event: Cardiac failure (%) ([6]; SAEs ≧ 1% incidence): (4%)
- Serious adverse event: Cardiac failure congestive (%) ([6]; SAEs ≧ 1% incidence): (1%)
- Serious adverse event: Chest pain (%) ([6]; SAEs ≧ 1% incidence): (2%)
- Serious adverse event: MI (%) ([6]; SAEs ≧ 1% incidence): (4%)
- Serious adverse event: Syncope (%) ([6]; SAEs ≧ 1% incidence): (1%)
- Patients early prematurely withdrawn due to AEs (%) ([6]; Safety - All Patients Dosed): (13%)
- Patients with AEs (%) ([6]; Safety - All Patients Dosed): (76%)
- Patients with AEs leading to death (%) ([6]; Safety - All Patients Dosed): (5%)
- Patients with serious AEs (SAEs) (%) ([6]; Safety - All Patients Dosed): (34%)
- Patients with study drug-related AEs (%) ([6]; Safety - All Patients Dosed): (30%)
- Incidence (Kaplan-Meier estimate) of CV death or MI ([7]; 30 days, ITT): 4.2%
- Incidence (Kaplan-Meier estimate) of CV death, MI, or recurrent ischemia ([7]; 30 days, ITT): 7.7%
- Incidence (Kaplan-Meier estimate) of CV death, MI, or severe recurrent ischemia ([7]; 30 days, ITT): 7.5%
- Incidence (Kaplan-Meier estimate) of CV death or MI ([7]; 60 days, ITT): 5.3%
- Incidence (Kaplan-Meier estimate) of CV death, MI, or recurrent ischemia ([7]; 60 days, ITT): 9.9%
- Incidence (Kaplan-Meier estimate) of CV death, MI, or severe recurrent ischemia ([7]; 60 days, ITT): 9.4%
- Endpoint-defining events: CV death (%) ([7]; ITT, n = 3279, CV death or MI endpoint): 30.5%
- Pts with events: first occurrence of CV death or MI ([7]; ITT, n = 3279, additional efficacy endpoint): 338
- Endpoint-defining events: CV death (%) [7, 10]: 14.6%
- Pts with events: first occurrence of CV death, MI, or severe recurrent ischemia [7, 10]: 602
- Endpoint-defining events: CV death (%) [7, 11]: 12.5%
- Pts with events: first occurrence of CV death, MI, or recurrent ischemia [7, 11]: 695
- Pts with events: CV death, MI, severe RI, or positive Holter for ischemia (%) ([7]; incidence at 30 days, ITT, n = 3279): 23%
- Primary endpoint occurred in (% of patients) ([7]; ranolazine group, Example 7): 21.8%
- HR for cardiovascular death or MI ([7]; ranolazine vs placebo): 0.99
- HR for recurrent ischemia ([7]; ranolazine vs placebo): 0.87
- HR for the primary endpoint ([7]; ranolazine vs placebo): 0.92
- Relative risk (SE): CV death, MI, or severe recurrent ischemia ([7]; ranolazine vs placebo, ITT, major secondary efficacy endpoint): 0.982 (0.06)
- HR for worsening angina ([7]; women, ranolazine vs placebo): 0.61
